What was measured:
[1] = Chlorhexidine gluconate remaining after gamma irradiation, measured by HPLC; assay type: physicochemical; conditions: for Chlorhexidine gluconate after irradiation, % / Preservation, %: initial CHD 0.075 wt %
Experimental: An aqueous solution of silver nitrate salt (as the source of silver) was prepared so that the final concentration of silver in the solution was 60 ppm. A 20 wt % aqueous solution of chlorhexidine gluconate (CHD) was added to make the resulting concentration of 0.05 wt %. Finally, isopropanol was added to achieve the concentration of 4 wt % in the resulting solution. The sample was a transparent colorless liquid. Thermo Scientific Evolution 220 Spectrophotometer was used to monitor the absorbance spectra of the sample, which is shown in FIG. 1 as the dashed line. The 30 ml sample solution was then subjected to irradiation by gamma rays at 7 kGy. The resulting solution was a transparent brownish liquid showing a clear peak of absorption at the wavelength 412.7 nm (solid line in FIG. 1), which corresponds to the presence of silver nanoparticles. The sample of the irradiated solution was presented for imaging to Transmission Electron Microscope (JEOL JEM 2100F) and an example of the image is shown in FIG. 2, which confirms formation of silver nanoparticles in the irradiated solution. The nanoparticles have quasi-spherical form and a visible conjugated layer around their surface. […]
Two identical samples were prepared as described in Example 1, each of them being colorless transparent aqueous solutions containing 60 ppm of silver in the form of silver nitrate, 0.5 wt % of polyvinyl alcohol, 4 wt % of isopropanol and 0.05 wt % of chlorhexidine gluconate. The samples were subjected to different doses of gamma irradiation—the first sample to 7 kGy and the second to 3 kGy. After irradiation the color of the samples changed to the transparent brown.
To evaluate any influence of the amount and the nature of the stabilizing agent, three different samples were prepared as described in Example 1. Each of them contained 30 ppm of silver in the form of silver nitrate and 0.05 wt % of chlorhexidine gluconate in an aqueous solution. The first sample additionally contained 0.5 wt % of polyvinyl alcohol (PVA) and 10 wt % of isopropanol, the second—2 wt % of polyvinyl alcohol and 10 wt % of isopropanol and the third sample additionally contained 1 wt % of polyvinylpyrrolidone (PVP) and 4 wt % of isopropanol. All three samples represented clear colorless liquids before irradiation. The irradiated at 10 kGy samples changed their color to the transparent brown color of different intensities. The concentration of chlorhexidine gluconate was measured using HPLC and determined as 0.015 wt % in the first and the second sample and 0.016 wt % in the third sample. The UV-vis spectra of all three samples show formation of silver nanoparticles, with the only difference that in the sample which contained PVP the nanoparticles are larger than in those which contained PVA (FIG. 5; the “shoulder” of the small dashed line indicates presence of nanoparticles larger than 100 nm).
To evaluate any difference caused by the initial amount of chlorhexidine gluconate, two samples were prepared as in Example 1, but one of them contained 0.05 wt % of chlorhexidine gluconate and another sample contained 0.075 wt % of chlorhexidine gluconate before irradiation. Both samples were irradiated at 7 kGy, by the action of which the nanoparticles of silver were formed in both samples.
To evaluate the influence of the amount of silver present in the form of a silver salt as a precursor for nanoparticles formation, three different samples were prepared as described in Example 1. Each of them contained 0.075 wt % of chlorhexidine gluconate, 0.5 wt % of polyvinyl alcohol and 4 wt % of isopropanol in an aqueous solution. Silver nitrate was added to each of the samples so that the concentration of silver in the samples was 15 ppm, 30 ppm and 60 ppm. All the samples were transparent colorless solutions. They were subjected to gamma irradiation at 7 kGy and the concentration of chlorhexidine gluconate was measured consequently using HPLC. […]

[2] = as above; assay type: physicochemical
[3] = Example 1: Ag 60 ppm (silver nitrate), initial CHD 0.05 wt %, isopropanol 4 wt %, gamma 7 kGy
[4] = Example 2: Ag 60 ppm, PVA 0.5 wt %, isopropanol 4 wt %, initial CHD 0.05 wt %, gamma 7 kGy
[5] = Example 4, first sample: initial CHD 0.05 wt %, silver nitrate, gamma 7 kGy
[6] = Example 4, second sample: initial CHD 0.075 wt %, silver nitrate, gamma 7 kGy
[7] = Example 5: Ag 15 ppm, PVA 0.5 wt %, isopropanol 4 wt %, gamma 7 kGy
[8] = Example 5: Ag 30 ppm, PVA 0.5 wt %, isopropanol 4 wt %, gamma 7 kGy
[9] = Example 5: Ag 60 ppm, PVA 0.5 wt %, isopropanol 4 wt %, gamma 7 kGy
[10] = Example 9: Au 30 ppm (chloroauric acid), isopropanol 4 wt %, initial CHD 0.05 wt %, gamma 3 kGy

## [H]/N=C(\N/C(=N/[H])NCCCCCCNC(=N)NC(=N)Nc1ccc(Cl)cc1)Nc1ccc(Cl)cc1 [chlorhexidine gluconate]
[1]; [3]
  concentration of chlorhexidine gluconate in the irradiated solution: 0.0295 wt %
  rate of preservation compared to the initial level before irradiation: 59%
[1]; Example 2: Ag 60 ppm, PVA 0.5 wt %, isopropanol 4 wt %, initial CHD 0.05 wt %, gamma 3 kGy
  rate of preservation: 79%
[1]; [4]
  chlorhexidine gluconate after irradiation: 0.0294 wt %
  rate of preservation: 58.8%
[1]; Example 3, first sample: Ag 30 ppm, initial CHD 0.05 wt %, PVA 0.5 wt %, isopropanol 10 wt %, gamma 10 kGy
  concentration of chlorhexidine gluconate after irradiation: 0.015 wt %
[1]; Example 3, second sample: Ag 30 ppm, initial CHD 0.05 wt %, PVA 2 wt %, isopropanol 10 wt %, gamma 10 kGy
  concentration of chlorhexidine gluconate after irradiation: 0.015 wt %
[1]; Example 3, third sample: Ag 30 ppm, initial CHD 0.05 wt %, PVP 1 wt %, isopropanol 4 wt %, gamma 10 kGy
  concentration of chlorhexidine gluconate after irradiation: 0.016 wt %
[1]; [5]
  concentration of chlorhexidine gluconate after irradiation: 0.0294 wt %
  preservation rate: 58.8%
[1]; [6]
  concentration of chlorhexidine gluconate after irradiation: 0.052 wt %
  preservation rate: 69.3%
[1]; [7]
  Chlorhexidine gluconate after irradiation, %: 0.043%
  Preservation, %: 57.33%
[1]; [8]
  Chlorhexidine gluconate after irradiation, %: 0.049%
  Preservation, %: 65.33%
[1]; [9]
  Chlorhexidine gluconate after irradiation, %: 0.052%
  Preservation, %: 69.33%
[1]; [10]
  preservation: 51.6%
[2]; Example 8 (comparative): gold nanoparticles made chemically with ascorbic acid, CHD 0.05 wt % added afterwards, gamma 7 kGy
  presence of chlorhexidine in the irradiated sample: not detected
[2]; [10]
  chlorhexidine gluconate detected after irradiation: 0.0258 wt %
